Test results published in PubChem BioAssay AID248 (DTP/NCI, 2004).
Values joined by “and” are separate entries in the source; they are usually repeats but may differ in a detail not shown here. Equal entries are not always repeated. Toxic doses and inconclusive results are not listed.

System: L1210 leukemia ip in BDF1 mice, survival T/C
Test: NCI In Vivo Anticancer Drug Screen. Data for tumor model L1210 Leukemia (intraperitoneal) in B6D2F1 (BDF1) mice
Settings: endpoint: mean survival time, higher = longer survival
Method in brief: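 Ratio derived from survival: compound-dosed mice over vehicle-dosed mice, all bearing a transplantable tumor.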

[1] = dose: 100.0 mg/kg/injection, schedule: Q01DX009 (ip), vehicle: saline with Tween-80
[2] = dose: 100.0 mg/kg/injection, schedule: Q04DX003 (ip), vehicle: saline with Tween-80
[3] = dose: 200.0 mg/kg/injection, schedule: Q01DX009 (ip), vehicle: saline with Tween-80
[4] = dose: 200.0 mg/kg/injection, schedule: Q04DX003 (ip), vehicle: saline with Tween-80
[5] = dose: 400.0 mg/kg/injection, schedule: Q01DX009 (ip), vehicle: saline with Tween-80
[6] = dose: 400.0 mg/kg/injection, schedule: Q04DX003 (ip), vehicle: saline with Tween-80
[7] = dose: 100.0 mg/kg/injection, schedule: Q01DX001 (ip), vehicle: saline
[8] = dose: 200.0 mg/kg/injection, schedule: Q01DX001 (ip), vehicle: saline
[9] = dose: 400.0 mg/kg/injection, schedule: Q01DX001 (ip), vehicle: saline
[10] = dose: 100.0 mg/kg/injection, schedule: Q01DX009 (ip), vehicle: Klucel (hydroxypropylcellulose) (HPC)
[11] = dose: 100.0 mg/kg/injection, schedule: Q04DX003 (ip), vehicle: Klucel (hydroxypropylcellulose) (HPC)
[12] = dose: 200.0 mg/kg/injection, schedule: Q01DX009 (ip), vehicle: Klucel (hydroxypropylcellulose) (HPC)
[13] = dose: 200.0 mg/kg/injection, schedule: Q04DX003 (ip), vehicle: Klucel (hydroxypropylcellulose) (HPC)
[14] = dose: 400.0 mg/kg/injection, schedule: Q04DX003 (ip), vehicle: Klucel (hydroxypropylcellulose) (HPC)
[15] = dose: 100.0 mg/kg/injection, schedule: Q01DX001 (ip), vehicle: saline with Tween-80
[16] = dose: 200.0 mg/kg/injection, schedule: Q01DX001 (ip), vehicle: saline with Tween-80
[17] = dose: 400.0 mg/kg/injection, schedule: Q01DX001 (ip), vehicle: saline with Tween-80
[18] = dose: 100.0 mg/kg/injection, schedule: Q04DX003 (ip), vehicle: saline
[19] = dose: 200.0 mg/kg/injection, schedule: Q04DX003 (ip), vehicle: saline
[20] = dose: 400.0 mg/kg/injection, schedule: Q04DX003 (ip), vehicle: saline

COC(=O)c1ccccc1C1(c2ccccc2C(=O)OC)OC(=O)c2ccccc21 was tested, and the T/C [1] was 97 % of control, the T/C [2] was 98 % of control and the T/C [3] was 101 % of control. For the same compound, the T/C [4] was 93 % of control, the T/C [5] was 97 % of control and the T/C [6] was 96 % of control.

CC(=O)OC1CCC2(C)C(=CC(=O)C3C2CCC2(C)C(C(C)CCCC(C)C)CCC32)C1 (configuration not stated) was tested, and the T/C (dose: 100.0 mg/kg/injection, schedule: Q01DX009 (sc), vehicle: steriod suspending solution) was 108 % of control, the T/C (dose: 100.0 mg/kg/injection, schedule: Q04DX003 (sc), vehicle: steriod suspending solution) was 91 % of control and the T/C (dose: 200.0 mg/kg/injection, schedule: Q01DX009 (sc), vehicle: steriod suspending solution) was 110 % of control. For the same compound, the T/C (dose: 200.0 mg/kg/injection, schedule: Q04DX003 (sc), vehicle: steriod suspending solution) was 91 % of control, the T/C (dose: 400.0 mg/kg/injection, schedule: Q01DX009 (sc), vehicle: steriod suspending solution) was 115 % of control and the T/C (dose: 400.0 mg/kg/injection, schedule: Q04DX003 (sc), vehicle: steriod suspending solution) was 102 % of control.

CC(N)CC(N)CC(=O)O (configuration not stated) was tested, and the T/C [7] was 96 % of control and 98 % of control, the T/C [8] was 98 % of control and 104 % of control and the T/C [9] was 91 % of control and 102 % of control.

In the case of CC1(C)C/C(=C/c2ccc([N+](=O)[O-])cc2[N+](=O)[O-])C(=O)O1, the T/C (dose: 50.0 mg/kg/injection, schedule: Q01DX001 (ip), vehicle: carboxymethylcellulose (CMC)) was 100 % of control, the T/C (dose: 100.0 mg/kg/injection, schedule: Q01DX001 (ip), vehicle: carboxymethylcellulose (CMC)) was 94 % of control and the T/C (dose: 200.0 mg/kg/injection, schedule: Q01DX001 (ip), vehicle: carboxymethylcellulose (CMC)) was 94 % of control. The T/C (dose: 400.0 mg/kg/injection, schedule: Q01DX001 (ip), vehicle: carboxymethylcellulose (CMC)) was 100 % of control.

With CC(CN(C)C)C(O)(c1ccccc1)c1ccccc1 (configuration not stated) the T/C (dose: 50.0 mg/kg/injection, schedule: Q01DX001 (ip), vehicle: saline) was 98 % of control, the T/C [7] was 98 % of control and the T/C [8] was 104 % of control.

With CCOC(=O)C1=NN(c2ccccc2)C(=O)C1N=Nc1ccc(S(=O)(=O)Nc2onc(C)c2C)cc1 (configuration not stated) the T/C [7] was 104 % of control, the T/C [8] was 98 % of control and the T/C [9] was 107 % of control.

With ClC(Cl)(Cl)c1cccc(C(Cl)(Cl)Cl)c1 the T/C [10] was 121 % of control, the T/C [11] was 105 % of control and the T/C [12] was 101 % of control. The T/C [13] was 95 % of control and the T/C [14] was 95 % of control.

For COCc1ccc(C(=O)Nc2c(N)ncnc2N)cc1, the T/C [15] was 100 % of control, the T/C [16] was 102 % of control and the T/C [17] was 95 % of control.

In the case of COC(=O)c1cncc(C(=O)OC)c1, the T/C (dose: 100.0 mg/kg/injection, schedule: Q04DX003 (ip), vehicle: saline sonified) was 95 % of control, the T/C (dose: 200.0 mg/kg/injection, schedule: Q04DX003 (ip), vehicle: saline sonified) was 104 % of control and the T/C (dose: 400.0 mg/kg/injection, schedule: Q04DX003 (ip), vehicle: saline sonified) was 97 % of control.

For CC(=O)NCC1CCCO1 (configuration not stated), the T/C (dose: 75.0 mg/kg/injection, schedule: Q01DX009 (ip), vehicle: saline) was 112 % of control, the T/C [18] was 105 % of control and the T/C (dose: 150.0 mg/kg/injection, schedule: Q01DX009 (ip), vehicle: saline) was 103 % of control. For the same compound, the T/C [19] was 108 % of control, the T/C (dose: 300.0 mg/kg/injection, schedule: Q01DX009 (ip), vehicle: saline) was 103 % of control and the T/C [20] was 106 % of control.

In the case of CC1CCCC(NC(=O)N(CCCl)N=O)C1 (configuration not stated), the T/C (dose: 8.0 mg/kg/injection, schedule: Q01DX001 (ip), vehicle: other) was 109 % of control, the T/C (dose: 27.0 mg/kg/injection, schedule: Q01DX001 (ip), vehicle: other) was 307 % of control and the T/C (dose: 31.0 mg/kg/injection, schedule: Q01DX001 (ip), vehicle: other) was 170 % of control. For the same compound, the T/C (dose: 35.0 mg/kg/injection, schedule: Q01DX001 (ip), vehicle: other) was 190 % of control, the T/C (dose: 42.0 mg/kg/injection, schedule: Q01DX001 (ip), vehicle: other) was 348 % of control and the T/C (dose: 62.0 mg/kg/injection, schedule: Q01DX001 (ip), vehicle: other) was 275 % of control and 361 % of control. The T/C (dose: 71.0 mg/kg/injection, schedule: Q01DX001 (ip), vehicle: other) was 301 % of control, the T/C (dose: 93.0 mg/kg/injection, schedule: Q01DX001 (ip), vehicle: other) was 307 % of control and the T/C (dose: 125.0 mg/kg/injection, schedule: Q01DX001 (ip), vehicle: other) was 86 % of control. For the same compound, the T/C (dose: 286.0 mg/kg/injection, schedule: Q01DX001 (ip), vehicle: other) was 88 % of control.

For COc1cc(N(C)C)c(OC)cc1C=O, the T/C [10] was 103 % of control, the T/C [11] was 97 % of control and the T/C [12] was 105 % of control. For the same compound, the T/C [13] was 95 % of control and the T/C [14] was 95 % of control.

In the case of O=S(=O)(O)/C(=C\c1ccccc1)c1ccccc1 (tested in a mixture with another compound), the T/C [7] was 103 % of control, the T/C (dose: 100.0 mg/kg/injection, schedule: Q04DX003 (ip), vehicle: other) was 106 % of control and the T/C [8] was 104 % of control. The T/C (dose: 200.0 mg/kg/injection, schedule: Q04DX003 (ip), vehicle: other) was 106 % of control, the T/C (dose: 264.0 mg/kg/injection, schedule: Q01DX001 (ip), vehicle: other) was 108 % of control and the T/C (dose: 400.0 mg/kg/injection, schedule: Q01DX001 (ip), vehicle: other) was 94 % of control. For the same compound, the T/C [9] was 115 % of control.

With COC(=O)/C(=C\c1ccccc1)CN1CCCCC1 the T/C (dose: 25.0 mg/kg/injection, schedule: Q01DX001 (ip), vehicle: saline with Tween-80) was 101 % of control, the T/C (dose: 50.0 mg/kg/injection, schedule: Q01DX001 (ip), vehicle: saline with Tween-80) was 93 % of control and the T/C [15] was 104 % of control.

In the case of CCCC(CCCC(=O)O)C(=O)c1ccccc1 (configuration not stated), the T/C [1] was 101 % of control, the T/C [3] was 104 % of control and the T/C [5] was 100 % of control.

In the case of CC(=O)OC1CC2CCC3C4CC=C(C(C)=O)C4(C)CCC3C2(C)CC1OC(C)=O (configuration not stated), the T/C (dose: 75.0 mg/kg/injection, schedule: Q04DX003 (ip), vehicle: other) was 97 % of control, the T/C (dose: 150.0 mg/kg/injection, schedule: Q04DX003 (ip), vehicle: other) was 97 % of control and the T/C (dose: 300.0 mg/kg/injection, schedule: Q04DX003 (ip), vehicle: other) was 94 % of control.

For O=C1OC(=O)C2C3CC(C4OC34)C12 (configuration not stated), the T/C [2] was 95 % of control, the T/C [4] was 100 % of control and the T/C [6] was 94 % of control.

In the case of C/C(=C(/CCO)SCCC(=O)c1ccc(Cl)cc1)N(C=O)Cc1cnc(C)nc1N, the T/C [18] was 97 % of control, the T/C [19] was 93 % of control and the T/C [20] was 97 % of control.

CC(CC(C)(C)C)C(=O)CCC(C)(C)C (configuration not stated) was tested, and the T/C [15] was 103 % of control, the T/C [16] was 95 % of control and the T/C [17] was 101 % of control.

For COc1cc2c(c3oc4c(c(=O)c13)CCCC4)CCC(C)(C)O2, the T/C [18] was 91 % of control, the T/C [19] was 94 % of control and the T/C [20] was 94 % of control.

With CSc1ccc(NC(=O)Nc2ccccc2C)cc1 the T/C [10] was 100 % of control, the T/C [11] was 93 % of control and the T/C [12] was 94 % of control. The T/C [13] was 95 % of control, the T/C (dose: 400.0 mg/kg/injection, schedule: Q01DX009 (ip), vehicle: Klucel (hydroxypropylcellulose) (HPC)) was 96 % of control and the T/C [14] was 88 % of control.

For COC(O)C(O)C(O)C(O)CO (configuration not stated) (tested in a mixture with another compound), the T/C [15] was 90 % of control, the T/C [16] was 97 % of control and the T/C [17] was 93 % of control.

With Oc1c(Cl)cc(Cl)cc1/C=N\Nc1ccccn1 the T/C (dose: 100.0 mg/kg/injection, schedule: Q01DX001 (ip), vehicle: Klucel (hydroxypropylcellulose) (HPC)) was 92 % of control, the T/C (dose: 200.0 mg/kg/injection, schedule: Q01DX001 (ip), vehicle: Klucel (hydroxypropylcellulose) (HPC)) was 95 % of control and the T/C (dose: 400.0 mg/kg/injection, schedule: Q01DX001 (ip), vehicle: Klucel (hydroxypropylcellulose) (HPC)) was 95 % of control.

O=C(O)/C(=C\c1ccc(Cl)cc1)c1ccc(Cl)cc1 was tested, and the T/C [10] was 104 % of control, the T/C [11] was 95 % of control and the T/C [12] was 89 % of control. For the same compound, the T/C [13] was 91 % of control and the T/C [14] was 95 % of control.
